Assay results reported in patent US11807693B2 (priority 2014, dated 2023).
pEC50: −log10 of the molar value. Starred links: 1 amine or outer side, 2 acyl side, 3 side chain; linkers in the order of their positions; H or OH if unused. Non-standard residues stand in square brackets, D forms with d. Residues, ends and D or L forms follow the SMILES beside them. ξ: configuration not given here. *: point of attachment. dBip = N[C@H](Cc1ccc(-c2ccccc2)cc1)C(=O)O; Oic = O=C(O)[C@@H]1C[C@@H]2CCCC[C@@H]2N1; Phe(4-Cl) = N[C@@H](Cc1ccc(Cl)cc1)C(=O)O; Phe(4-I) = N[C@@H](Cc1ccc(I)cc1)C(=O)O; γGlu = O=C(O)[C@H](CCC(=O)[*:2])N[*:1]; NMeR = CN[C@@H](CCCNC(=N)N)C(=O)O; Tridecanoyl = CCCCCCCCCCCCC(=O)*; hArg = N=C(N)NCCCC[C@H](N)C(=O)O; Cha = N[C@@H](CC1CCCCC1)C(=O)O; NMeL = CN[C@@H](CC(C)C)C(=O)O; αMeL = CC(C)C[C@](C)(N)C(=O)O; ξαMeL = CC(C)CC(C)(N)C(=O)O; Nle = CCCC[C@H](N)C(=O)O; ξαMeP = CC1(C(=O)O)CCCN1; ξβ3hV = CC(C)C(N)CC(=O)O; AEEA = NCCOCCOCC(=O)O

Legend:
[1] = In vitro stability in rat plasma; type: in vitro ADME
How it was run: (§1)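 Apelin peptides were spiked at 5 μM final into rat plasma, liver homogenate or kidney homogenate and incubated at 37° C. for up to 4 hr. Aliquots were quenched with MeOH containing internal standard, centrifuged, and supernatants analyzed by high resolution LC-MS.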

[2] = In vitro stability in rat kidney homogenate; type: in vitro ADME; conditions: rat, tissue homogenate
How it was run: as §1

[3] = molecular target: T1, human APJ receptor (Homo sapiens, UniProt P35414); assay: [35S] GTPγS assay, human APJ receptor; type: biochemical
T1 construct: expressed in transfected cells
T1 sequence (P35414 1-380): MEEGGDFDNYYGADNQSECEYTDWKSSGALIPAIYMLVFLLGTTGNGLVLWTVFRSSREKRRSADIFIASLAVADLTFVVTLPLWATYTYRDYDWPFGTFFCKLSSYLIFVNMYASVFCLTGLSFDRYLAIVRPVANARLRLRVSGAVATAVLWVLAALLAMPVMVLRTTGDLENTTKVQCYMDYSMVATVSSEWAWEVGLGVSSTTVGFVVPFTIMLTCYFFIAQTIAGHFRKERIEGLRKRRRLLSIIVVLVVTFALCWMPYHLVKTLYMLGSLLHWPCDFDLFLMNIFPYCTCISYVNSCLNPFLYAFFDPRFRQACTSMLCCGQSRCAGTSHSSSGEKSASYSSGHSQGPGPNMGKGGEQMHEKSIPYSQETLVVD

[4] = In vitro stability in rat liver homogenate; type: in vitro ADME; conditions: tissue homogenate
How it was run: as §1

[5] = molecular target: T2, rat APJ receptor (Rattus norvegicus, UniProt Q9JHG3); assay: [35S] GTPγS assay, rat APJ receptor; type: biochemical; conditions: rat APJ receptor, read-out: EC50 Rat APJ Receptor
T2 construct: expressed in transfected cells
T2 sequence (Q9JHG3 1-377): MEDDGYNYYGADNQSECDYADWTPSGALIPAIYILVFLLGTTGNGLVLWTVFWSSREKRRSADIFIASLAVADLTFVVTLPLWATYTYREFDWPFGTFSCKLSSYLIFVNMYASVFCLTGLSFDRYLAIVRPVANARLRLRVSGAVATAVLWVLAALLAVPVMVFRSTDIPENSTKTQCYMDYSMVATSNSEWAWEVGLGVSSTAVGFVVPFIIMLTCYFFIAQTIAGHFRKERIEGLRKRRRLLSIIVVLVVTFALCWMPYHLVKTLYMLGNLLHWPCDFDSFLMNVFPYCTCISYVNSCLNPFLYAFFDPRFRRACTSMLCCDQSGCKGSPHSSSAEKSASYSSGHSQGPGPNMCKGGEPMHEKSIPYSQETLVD
Procedure: The membranes were incubated with modified peptides in the assay buffer. […] Bound [^35S] GTPγS was separated from free radiolabel by filtration. The filter bound radioactivity was determined by liquid scintillation counting.

| remaining at 4 h, 5 μM [1] [%] | remaining at 4 h, 5 μM [2] [%] | pEC50 ([3]; human APJ receptor) | remaining at 4 h, 5 μM [4] [%] | pEC50 [5] | pEC50 ([3]; Table 16) | SMILES |
| --- | --- | --- | --- | --- | --- | --- |
| < 1 | 4 |  | < 1 |  | 9.71 | CCCCCCCCCCCCC(=O)N[C@@H](CCC(=O)NCCOCCOCC(=O)NCCOCCOCC(=O)N[C@@H](CCC(N)=O)C(=O)N[C@@H](CCCNC(=N)N)C(=O)N1CCC[C@H]1C(=O)N(C)[C@@H](CCCNC(=N)N)C(=O)N[C@@](C)(CC(C)C)C(=O)N[C@@H](CO)C(=O)N[C@@H](Cc1c[nH]cn1)C(=O)N[C@@H](CCCCN)C(=O)NCC(=O)N1[C@H](C(=O)N[C@@H](CCCC)C(=O)N[C@@H](Cc2ccc(Cl)cc2)C(=O)O)C[C@@H]2CCCC[C@@H]21)C(=O)O [compound 389] ({Tridecanoyl-γGlu-AEEA-AEEA}-QRP[NMeR][αMeL]SHKG[Oic][Nle][Phe(4-Cl)]-OH) |
| 64 | 2 |  | < 1 |  | 9.37 | CCCCCCCCCCCCC(=O)N[C@@H](CCC(=O)NCCOCCOCC(=O)NCCOCCOCC(=O)N[C@@H](CCC(N)=O)C(=O)N[C@@H](CCCNC(=N)N)C(=O)N1CCC[C@H]1C(=O)N[C@@H](CCC(=O)O)C(=O)N[C@@H](CC(C)C)C(=O)N[C@@H](CO)C(=O)N[C@@H](Cc1c[nH]cn1)C(=O)N[C@@H](CCCCN)C(=O)NCC(=O)N1CCC[C@H]1C(=O)N[C@@H](CCCC)C(=O)N1CCC[C@H]1C(=O)N[C@@H](Cc1ccc(Cl)cc1)C(=O)O)C(=O)O [compound 477] ({Tridecanoyl-γGlu-AEEA-AEEA}-QRPELSHKGP[Nle]P[Phe(4-Cl)]-OH) |
| > 90 | 18 | 8.71 | 40 |  |  | CCCCCCCCCCCCC(=O)N[C@@H](CCC(=O)NCCOCCOCC(=O)NCCOCCOCC(=O)NC(CC(=O)N[C@@H](CCCNC(=N)N)C(=O)N1CCCC1(C)C(=O)N[C@@H](CCCCNC(=N)N)C(=O)NC(C)(CC(C)C)C(=O)N[C@@H](CO)C(=O)N[C@@H](Cc1c[nH]cn1)C(=O)N[C@@H](CCCCN)C(=O)NCC(=O)N1[C@H](C(=O)N[C@@H](CCCC)C(=O)N2CCCC2(C)C(=O)N[C@@H](Cc2ccc(Cl)cc2)C(=O)O)C[C@@H]2CCCC[C@@H]21)C(C)C)C(=O)O (stereo partly drawn) [compound 552] ({Tridecanoyl-γGlu-AEEA-AEEA}-[ξβ3hV]R[ξαMeP][hArg][ξαMeL]SHKG[Oic][Nle][ξαMeP][Phe(4-Cl)]-OH) |

Continued, compound first:

| SMILES | remaining at 4 h, 5 μM [1] [%] | remaining at 4 h, 5 μM [2] [%] | pEC50 ([3]; human APJ receptor) | remaining at 4 h, 5 μM [4] [%] | pEC50 [5] | pEC50 ([3]; Table 16) |
| --- | --- | --- | --- | --- | --- | --- |
| CCCCCCCCCCCCC(=O)N[C@@H](CCC(=O)NCCOCCOCC(=O)NCCOCCOCC(=O)NC(CC(=O)N[C@@H](CCCNC(=N)N)C(=O)N1CCC[C@H]1C(=O)N(C)[C@@H](CCCNC(=N)N)C(=O)NC(C)(CC(C)C)C(=O)N[C@@H](CO)C(=O)N[C@@H](Cc1c[nH]cn1)C(=O)N[C@@H](CCCCN)C(=O)NCC(=O)N1[C@H](C(=O)N[C@@H](CCCC)C(=O)N2CCC[C@H]2C(=O)N[C@@H](Cc2ccc(Cl)cc2)C(=O)O)C[C@@H]2CCCC[C@@H]21)C(C)C)C(=O)O (stereo partly drawn) [compound 374] ({Tridecanoyl-γGlu-AEEA-AEEA}-[ξβ3hV]RP[NMeR][ξαMeL]SHKG[Oic][Nle]P[Phe(4-Cl)]-OH) | 66 | 89 | 9.52 | 11 | 9.30 |  |
| CCCC[C@H](NC(=O)[C@@H]1C[C@@H]2CCCC[C@@H]2N1C(=O)CNC(=O)[C@H](CCCCN)NC(=O)[C@H](Cc1c[nH]cn1)NC(=O)[C@H](CO)NC(=O)[C@H](CC1CCCCC1)NC(=O)[C@H](CCCNC(=N)N)N(C)C(=O)[C@@H]1CCCN1C(=O)[C@H](CCCCNC(=N)N)NC(=O)[C@H](CCC(N)=O)NC(C)=O)C(=O)N1CCC[C@H]1C(=O)N[C@@H](Cc1ccc(Cl)cc1)C(=O)O [compound 61] (Ac-Q[hArg]P[NMeR][Cha]SHKG[Oic][Nle]P[Phe(4-Cl)]-OH) | 27.9 | 7.58 | 9.80 | < 1 | 9.72 |  |
| CCCCCCCCCCCCC(=O)N[C@@H](CCC(=O)NCCOCCOCC(=O)NCCOCCOCC(=O)N[C@@H](CCCC)C(=O)N[C@H](CCCNC(=N)N)C(=O)N[C@@H](CCC(N)=O)C(=O)N[C@@H](CCCCNC(=N)N)C(=O)N1CCC[C@H]1C(=O)N[C@H](CCCNC(=N)N)C(=O)N(C)[C@@H](CC(C)C)C(=O)N[C@@H](CO)C(=O)N[C@@H](Cc1c[nH]cn1)C(=O)N[C@@H](CCCCN)C(=O)NCC(=O)N1[C@H](C(=O)N[C@@H](Cc2ccc(I)cc2)C(=O)N2CCC[C@H]2C(=O)N[C@H](Cc2ccc(-c3ccccc3)cc2)C(=O)O)C[C@@H]2CCCC[C@@H]21)C(=O)O [compound 314] ({Tridecanoyl-γGlu-AEEA-AEEA}-[Nle][dR]Q[hArg]P[dR][NMeL]SHKG[Oic][Phe(4-I)]P[dBip]-OH) | > 90 | 71 | 8.56 | 77.5 |  |  |
